Data on one compound can be found in ChEMBL document CHEMBL1141640, “Cyclic guanidines as dual 5-HT5A/5-HT7 receptor ligands: optimising brain penetration” (Bioorg Med Chem Lett, 2008).

The target of experiment [1] is 5-hydroxytryptamine receptor 6 (Homo sapiens, UniProt P50406). The experiment is described as follows: Binding affinity to human 5HT6 receptor.
The target in experiment [2] is T1, 5-hydroxytryptamine receptor 2C (Homo sapiens, UniProt P28335).
T1 sequence (P28335 whole entry): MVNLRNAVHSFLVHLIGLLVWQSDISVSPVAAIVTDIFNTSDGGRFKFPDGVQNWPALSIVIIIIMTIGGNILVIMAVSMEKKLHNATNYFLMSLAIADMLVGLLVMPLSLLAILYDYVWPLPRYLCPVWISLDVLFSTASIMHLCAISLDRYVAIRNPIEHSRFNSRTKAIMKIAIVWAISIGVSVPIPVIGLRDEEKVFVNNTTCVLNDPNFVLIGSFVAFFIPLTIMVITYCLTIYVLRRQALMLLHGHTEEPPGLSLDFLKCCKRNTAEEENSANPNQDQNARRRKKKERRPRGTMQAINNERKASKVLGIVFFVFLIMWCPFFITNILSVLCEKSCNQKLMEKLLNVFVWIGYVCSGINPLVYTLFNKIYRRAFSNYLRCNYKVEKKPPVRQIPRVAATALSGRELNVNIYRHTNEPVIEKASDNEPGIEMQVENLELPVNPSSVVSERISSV
Briefly: Binding affinity to human 5HT2C receptor.

Experiment [3] deals with 5-hydroxytryptamine receptor 7 (Homo sapiens, UniProt P34969). Briefly: Binding affinity to human 5HT7 receptor.
Sequence of 5-hydroxytryptamine receptor 7 (P34969 whole entry): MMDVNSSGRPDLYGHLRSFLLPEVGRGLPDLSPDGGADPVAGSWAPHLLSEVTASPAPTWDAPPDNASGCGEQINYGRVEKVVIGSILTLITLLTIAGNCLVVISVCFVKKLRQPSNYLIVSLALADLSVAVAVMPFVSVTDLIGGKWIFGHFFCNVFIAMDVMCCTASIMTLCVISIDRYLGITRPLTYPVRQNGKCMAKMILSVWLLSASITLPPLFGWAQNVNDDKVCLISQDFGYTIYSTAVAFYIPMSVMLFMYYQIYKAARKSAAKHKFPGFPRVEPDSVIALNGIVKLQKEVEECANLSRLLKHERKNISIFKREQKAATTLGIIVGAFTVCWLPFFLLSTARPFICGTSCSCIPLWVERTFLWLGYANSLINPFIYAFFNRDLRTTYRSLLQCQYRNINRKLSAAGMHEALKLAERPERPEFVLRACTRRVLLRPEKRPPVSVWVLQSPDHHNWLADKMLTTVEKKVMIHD
Experiment [4] has as its target T2, 5-hydroxytryptamine receptor 3A (Homo sapiens, UniProt P46098).
T2 sequence (P46098 whole entry): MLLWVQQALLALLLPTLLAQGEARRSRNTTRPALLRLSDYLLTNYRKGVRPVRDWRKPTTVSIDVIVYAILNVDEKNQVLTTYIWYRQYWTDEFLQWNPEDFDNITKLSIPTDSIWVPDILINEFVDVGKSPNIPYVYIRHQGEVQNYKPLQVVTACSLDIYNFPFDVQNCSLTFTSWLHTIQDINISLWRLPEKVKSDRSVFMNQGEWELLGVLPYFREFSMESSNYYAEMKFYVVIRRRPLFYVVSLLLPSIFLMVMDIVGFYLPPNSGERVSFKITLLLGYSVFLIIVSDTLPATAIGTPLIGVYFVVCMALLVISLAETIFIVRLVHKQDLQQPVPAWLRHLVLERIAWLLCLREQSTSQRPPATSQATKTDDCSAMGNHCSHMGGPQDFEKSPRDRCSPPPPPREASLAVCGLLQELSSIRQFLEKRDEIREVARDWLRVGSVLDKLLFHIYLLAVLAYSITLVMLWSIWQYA
Briefly: Binding affinity to human 5HT3 receptor.

The target in experiment [5] is 5-hydroxytryptamine receptor 1D (Homo sapiens, UniProt P28221). Briefly: Binding affinity to human 5HT1D receptor.
Sequence of 5-hydroxytryptamine receptor 1D (P28221 whole entry): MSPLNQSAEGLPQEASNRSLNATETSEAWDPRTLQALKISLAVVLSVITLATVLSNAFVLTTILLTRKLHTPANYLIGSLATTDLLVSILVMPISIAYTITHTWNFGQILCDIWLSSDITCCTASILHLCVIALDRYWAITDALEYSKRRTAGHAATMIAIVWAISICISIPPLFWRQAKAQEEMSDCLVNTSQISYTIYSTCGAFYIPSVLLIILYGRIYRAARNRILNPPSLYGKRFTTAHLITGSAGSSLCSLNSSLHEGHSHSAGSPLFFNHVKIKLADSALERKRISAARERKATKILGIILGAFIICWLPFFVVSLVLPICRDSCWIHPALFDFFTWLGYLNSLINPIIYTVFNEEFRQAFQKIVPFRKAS
For experiment [6], the target named is T3, 5-hydroxytryptamine receptor 1A (Homo sapiens, UniProt P08908).
T3 sequence (P08908 whole entry): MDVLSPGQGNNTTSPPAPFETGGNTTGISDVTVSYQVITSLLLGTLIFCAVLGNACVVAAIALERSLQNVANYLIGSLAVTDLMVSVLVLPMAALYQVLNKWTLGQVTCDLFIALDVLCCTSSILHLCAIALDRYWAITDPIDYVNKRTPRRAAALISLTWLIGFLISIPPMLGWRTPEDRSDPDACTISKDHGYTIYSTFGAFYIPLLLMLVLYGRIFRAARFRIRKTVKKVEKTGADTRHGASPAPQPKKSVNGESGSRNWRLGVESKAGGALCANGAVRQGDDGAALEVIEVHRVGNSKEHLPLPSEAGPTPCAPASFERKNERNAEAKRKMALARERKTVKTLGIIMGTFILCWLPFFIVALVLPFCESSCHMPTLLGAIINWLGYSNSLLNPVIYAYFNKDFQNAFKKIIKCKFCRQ
The experiment is described as follows: Binding affinity to human 5HT1A receptor.

In experiment [7] the target is 5-hydroxytryptamine receptor 2A (Homo sapiens, UniProt P28223). Briefly: Binding affinity to human 5HT2A receptor.
Sequence of 5-hydroxytryptamine receptor 2A (P28223 whole entry): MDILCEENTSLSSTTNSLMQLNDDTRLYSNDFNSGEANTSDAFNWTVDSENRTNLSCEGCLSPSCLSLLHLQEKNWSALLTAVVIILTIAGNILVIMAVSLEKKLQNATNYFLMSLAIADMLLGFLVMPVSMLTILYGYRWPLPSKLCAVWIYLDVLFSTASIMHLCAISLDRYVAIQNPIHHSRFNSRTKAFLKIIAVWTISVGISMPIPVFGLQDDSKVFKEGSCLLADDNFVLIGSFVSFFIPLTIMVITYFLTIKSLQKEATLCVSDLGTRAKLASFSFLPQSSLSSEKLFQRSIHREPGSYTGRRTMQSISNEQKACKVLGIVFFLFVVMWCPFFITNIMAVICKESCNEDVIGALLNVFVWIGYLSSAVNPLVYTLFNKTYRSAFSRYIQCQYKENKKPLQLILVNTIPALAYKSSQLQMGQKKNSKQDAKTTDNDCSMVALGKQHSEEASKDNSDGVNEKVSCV
In experiment [8] the target is 5-hydroxytryptamine receptor 5A (Homo sapiens, UniProt P47898). Briefly: Binding affinity to human 5HT5A receptor. The note with it: read-out: Ki.
Sequence of 5-hydroxytryptamine receptor 5A (Homo sapiens, UniProt P47898) (P47898 whole entry): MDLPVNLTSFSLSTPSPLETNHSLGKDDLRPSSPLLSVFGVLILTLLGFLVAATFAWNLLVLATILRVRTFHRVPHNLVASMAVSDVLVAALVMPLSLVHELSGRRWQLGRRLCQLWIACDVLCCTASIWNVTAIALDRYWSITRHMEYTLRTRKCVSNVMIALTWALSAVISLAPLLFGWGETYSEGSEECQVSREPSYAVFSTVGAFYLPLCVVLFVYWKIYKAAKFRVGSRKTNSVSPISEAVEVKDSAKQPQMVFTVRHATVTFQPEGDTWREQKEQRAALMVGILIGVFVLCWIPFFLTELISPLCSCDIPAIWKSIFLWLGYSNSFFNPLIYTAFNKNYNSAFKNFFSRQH
Experiment [9] concerns the target 5-hydroxytryptamine receptor 5A (Rattus norvegicus, UniProt P35364). Briefly: Binding affinity to rat 5HT5A receptor.

Sequence of 5-hydroxytryptamine receptor 5A (Rattus norvegicus, UniProt P35364) (P35364 whole entry): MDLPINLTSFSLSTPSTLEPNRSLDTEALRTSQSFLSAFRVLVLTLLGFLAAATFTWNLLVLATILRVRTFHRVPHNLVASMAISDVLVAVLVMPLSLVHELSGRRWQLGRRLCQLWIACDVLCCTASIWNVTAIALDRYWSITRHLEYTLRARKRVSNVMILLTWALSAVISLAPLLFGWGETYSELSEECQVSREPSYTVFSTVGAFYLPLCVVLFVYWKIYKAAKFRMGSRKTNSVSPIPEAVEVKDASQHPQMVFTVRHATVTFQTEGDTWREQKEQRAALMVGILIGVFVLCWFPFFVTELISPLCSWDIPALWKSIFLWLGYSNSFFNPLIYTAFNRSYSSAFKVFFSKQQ
Sequence of 5-hydroxytryptamine receptor 6 (P50406 whole entry): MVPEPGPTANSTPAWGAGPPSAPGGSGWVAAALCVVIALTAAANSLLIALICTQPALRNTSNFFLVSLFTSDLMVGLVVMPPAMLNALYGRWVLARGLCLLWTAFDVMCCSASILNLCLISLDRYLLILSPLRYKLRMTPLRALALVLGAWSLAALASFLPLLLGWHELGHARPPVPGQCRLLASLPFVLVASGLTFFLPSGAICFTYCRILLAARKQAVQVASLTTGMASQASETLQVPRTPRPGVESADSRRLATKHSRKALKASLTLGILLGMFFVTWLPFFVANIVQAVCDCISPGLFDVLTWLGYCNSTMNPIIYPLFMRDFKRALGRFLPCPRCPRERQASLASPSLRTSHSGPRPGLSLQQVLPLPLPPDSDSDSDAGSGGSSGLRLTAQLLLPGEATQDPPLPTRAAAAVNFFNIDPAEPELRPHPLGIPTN

As for `C[C@@H]1NC(N)=Nc2cccc(Cl)c21`, the Ki in experiment [1] was determined as 1030 nM; in experiment [2] it was 55 nM; in [3], 6 nM; in [4], 1060 nM; in experiment [5], 1100 nM; in experiment [6], 95.2 nM. The Ki amounted to 257 nM in experiment [7], 1.6 nM in [8] and 1.3 nM in [9].
